According to PMC3921447, “Homologous and heterologous desensitization of guanylyl cyclase-B signaling in GH3 somatolactotropes” (Cell and Tissue Research, 2013):

Key:
[1] = biological target: T1, GC-B (Rattus norvegicus, UniProt P16067); assay: Heterologous desensitization of CNP-stimulated (GC-B) cGMP accumulation in GH3 cells; format: cell-based
T1 construct: rapid homologous desensitization of endogenous GC-B receptors in GH3 cells; endogenous in cells; host or cells: GH3 rat somatolactotrope cells
T1 sequence (P16067 17-1047): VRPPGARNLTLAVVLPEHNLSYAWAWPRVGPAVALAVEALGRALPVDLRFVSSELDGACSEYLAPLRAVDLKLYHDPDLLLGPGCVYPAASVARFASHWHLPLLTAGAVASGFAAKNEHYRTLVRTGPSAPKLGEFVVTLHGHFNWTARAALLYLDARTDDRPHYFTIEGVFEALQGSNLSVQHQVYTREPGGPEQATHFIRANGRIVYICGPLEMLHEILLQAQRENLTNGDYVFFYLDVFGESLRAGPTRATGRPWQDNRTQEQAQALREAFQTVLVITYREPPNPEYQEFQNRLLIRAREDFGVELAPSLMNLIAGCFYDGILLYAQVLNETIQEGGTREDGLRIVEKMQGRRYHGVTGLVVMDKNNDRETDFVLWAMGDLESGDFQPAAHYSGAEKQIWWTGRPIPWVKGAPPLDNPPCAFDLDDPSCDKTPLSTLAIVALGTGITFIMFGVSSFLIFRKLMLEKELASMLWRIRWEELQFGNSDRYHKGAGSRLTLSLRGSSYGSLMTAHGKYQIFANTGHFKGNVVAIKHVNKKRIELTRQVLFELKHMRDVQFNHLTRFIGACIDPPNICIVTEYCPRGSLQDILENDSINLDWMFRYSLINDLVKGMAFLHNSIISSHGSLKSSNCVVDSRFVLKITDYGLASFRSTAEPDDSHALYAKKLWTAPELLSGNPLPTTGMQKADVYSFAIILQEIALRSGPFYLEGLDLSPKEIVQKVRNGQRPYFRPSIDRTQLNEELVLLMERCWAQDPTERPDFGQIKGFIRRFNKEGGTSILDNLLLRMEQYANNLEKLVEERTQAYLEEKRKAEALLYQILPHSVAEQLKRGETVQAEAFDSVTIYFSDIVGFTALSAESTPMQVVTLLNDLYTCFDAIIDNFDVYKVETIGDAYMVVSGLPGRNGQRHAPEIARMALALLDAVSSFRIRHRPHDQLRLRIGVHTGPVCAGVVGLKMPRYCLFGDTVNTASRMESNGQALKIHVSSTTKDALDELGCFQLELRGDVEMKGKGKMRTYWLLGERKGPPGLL
Source text: (§1) Sphingolipids and calcium have been implicated in regulating natriuretic peptide signaling (Abbey-Hosch et al. [2004]; Abbey and Potter [2002]). Therefore, we examined the role of sphingosine-1-phosphate (S1P) on CNP-stimulated cGMP accumulation. […] However, S1P pre-treatment did cause desensitization of CNP-stimulated cGMP accumulation (by 30 ± 2.7 % compared with control, **P < 0.01).
(§2) Fig. 6 Evidence of sphingosine-mediated but not calcium-mediated, heterologous desensitization of GC-B signaling in GH3 somatolactotrope cells. GH3 cells were pre-treated with PSS containing either (a, b) 10 μM sphingosine-1-phosphate (S1P) or (c, d) 1 μM A23187 (calcium ionophore) for 30 min in the absence of IBMX, before a 15-min stimulation with either 100 nM CNP (a, c) or 100 nM ANP (b, d) in the presence of 1 mM IBMX.
(§3) Subsequent experiments examined the potential regulation of GC-B signaling by other peptide hormones. To determine whether the GC-B receptor underwent heterologous desensitization in GH3 cells, the effect of three known activators of PKC on CNP-stimulated cGMP accumulation was analyzed. […] To establish whether the TRH-induced heterologous desensitization of GC-B signaling was PKC-dependent, GH3 cells were pre-treated with either 0 or 1 μM GF109203X for 30 min to inhibit PKC activity. After this, cells were further pre-treated in the absence or presence of GF109203X and 0 or 100 nM TRH for a further 30 min, prior to stimulation with 0 or 100 nM CNP for a final 15-min stimulation in the presence of 1 mM IBMX.
(§4) Fig. 7 Protein kinase C (PKC)-dependent heterologous desensitization mediates the effects of thyrotrophin-releasing hormone (TRH) on CNP-stimulated GC-B signaling in GH3 somatolactotrope cells. a GH3 cells were pre-treated with PSS containing either 0 or 100 nM TRH, phorbol-12-myristate-13-acetate (PMA), or pituitary adenylate cyclase-activating polypeptide (PACAP) for 30 min in the absence of IBMX, before a 15-min stimulation with either 0 or 100 nM CNP in the presence of 1 mM IBMX.

[2] = biological target: T2, GC-A (Rattus norvegicus, UniProt P18910); assay: Heterologous desensitization of ANP-stimulated (GC-A) cGMP accumulation in GH3 cells; format: cell-based
T2 construct: Evidence of homologous desensitization of endogenous GC-A- and GC-B-mediated signaling in GH3 cells; endogenous in cells; host or cells: GH3 rat somatolactotrope cells
T2 sequence (P18910 29-1057): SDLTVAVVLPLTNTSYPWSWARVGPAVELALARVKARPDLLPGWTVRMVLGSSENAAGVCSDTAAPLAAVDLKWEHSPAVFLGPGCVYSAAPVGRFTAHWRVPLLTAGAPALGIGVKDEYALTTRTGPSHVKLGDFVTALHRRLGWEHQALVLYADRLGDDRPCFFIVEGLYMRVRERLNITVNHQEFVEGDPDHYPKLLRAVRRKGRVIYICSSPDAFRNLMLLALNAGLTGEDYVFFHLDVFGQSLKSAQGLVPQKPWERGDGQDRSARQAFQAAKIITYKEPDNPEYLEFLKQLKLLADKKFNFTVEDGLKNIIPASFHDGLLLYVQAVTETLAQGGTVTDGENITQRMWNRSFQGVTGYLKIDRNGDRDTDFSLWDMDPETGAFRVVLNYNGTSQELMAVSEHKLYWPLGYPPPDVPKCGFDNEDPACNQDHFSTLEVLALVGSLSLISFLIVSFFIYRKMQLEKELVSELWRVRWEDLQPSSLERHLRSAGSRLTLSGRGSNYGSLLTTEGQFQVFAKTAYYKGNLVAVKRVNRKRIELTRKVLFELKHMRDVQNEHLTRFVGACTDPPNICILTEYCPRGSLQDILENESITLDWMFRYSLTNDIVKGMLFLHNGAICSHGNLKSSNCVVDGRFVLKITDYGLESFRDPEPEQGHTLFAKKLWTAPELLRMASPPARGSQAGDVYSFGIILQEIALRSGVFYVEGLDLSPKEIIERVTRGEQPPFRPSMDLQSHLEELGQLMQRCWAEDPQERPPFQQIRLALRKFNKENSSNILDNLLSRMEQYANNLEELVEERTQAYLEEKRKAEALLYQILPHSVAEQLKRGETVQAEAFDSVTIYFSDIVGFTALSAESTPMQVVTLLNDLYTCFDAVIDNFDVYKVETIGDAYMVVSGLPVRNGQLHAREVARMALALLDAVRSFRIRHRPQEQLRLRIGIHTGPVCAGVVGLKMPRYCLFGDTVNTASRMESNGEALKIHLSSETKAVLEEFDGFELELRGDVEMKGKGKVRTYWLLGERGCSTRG
Source text: as §1
Fig. 6 Evidence of sphingosine-mediated but not calcium-mediated, heterologous desensitization of GC-B signaling in GH3 somatolactotrope cells. […]

[3] = biological target: T1, GC-B; assay: Effect of protein phosphatase inhibitors on rapid homologous desensitization of CNP-stimulated cGMP accumulation in GH3 cells; format: cell-based; details: for rate of cGMP accumulation from 5 to 15 min (desensitization): 100 nM CNP, 1 mM IBMX, 30 min pre-treatment with 100 nM OA, 1 nM cypermethrin or 1 mM Na3VO4, control = CNP alone, n = 3; for reversal of the failure to maintain the initial rate of cGMP accumulation: 30 min pre-treatment with phosphatase inhibitor, then 100 nM CNP, discussion statement
Procedure: Fig. 2 Rapid homologous desensitization of CNP-dependent but not ANP-dependent cGMP accumulation in GH3 cells. Cells were treated with PSS containing either (a) 100 nM CNP or (b) 100 nM ANP for 0–15 min in the presence of 1 mM IBMX.
Similar short time-courses were performed, except that some cells were pre-treated with 100 nM okadaic acid (OA, a PP2A inhibitor), 1 nM cypermethrin (a PP2B inhibitor), or 1 mM sodium orthovanadate (Na3VO4, a protein tyrosine phosphatase inhibitor) for 30 min prior to CNP treatment (Fig. 2c).

[4] = test system: GC-B; details: NIH3T3, A10, 293 T cells; ref Abbey-Hosch et al. [2004], [2005]; cited from earlier work
Source text: Heterologous desensitization of the natriuretic peptide receptors has been widely reported. Sphinogosine signaling is implicated in GC-B desensitization in NIH3T3 fibroblasts, A10 vascular smooth muscle cells and 293 T cells (Abbey-Hosch et al. [2004], [2005]). […] In the current study, we observed a modest effect of S1P pre-treatment of CNP-stimulated cGMP accumulation in GH3 ce ...

[5] = test system: GH3 cells; assay: Basal cGMP accumulation in GH3 cells after pre-treatment; format: cell-based, rat; details: 30 min pre-treatment
Source text: as §1, §2, §3, §4

[6] = 100 nM TRH, PMA or PACAP, ns, P > 0.05, Fig. 7a

CNc1ccc2oc(C[C@H]3O[C@@]4(CC[C@H]3C)O[C@H]([C@H](C)C(=O)c3ccc[nH]3)[C@H](C)C[C@H]4C)nc2c1C(=O)O [A23187]
effect on CNP-stimulated cGMP accumulation ([1]; 10 μM A23187 30 min pre-treatment, then 100 nM CNP 15 min, Fig. 6c): failed to alter either CNP- or ANP-stimulated cGMP accumulation | effect on ANP-stimulated cGMP accumulation ([2]; 10 μM A23187 30 min pre-treatment, then 100 nM ANP 15 min, Fig. 6d): failed to alter either CNP- or ANP-stimulated cGMP accumulation

[Na+].[Na+].[Na+].[O]=[V]([O-])([O-])[O-] [Na3VO4, sodium orthovanadate]
rate of cGMP accumulation from 5 to 15 min (desensitization) [3]: failed to maintain a significant rate of cGMP accumulation | reversal of the failure to maintain the initial rate of cGMP accumulation [3]: failed to reverse the apparent homologous desensitization

C=C1[C@@H](O)[C@@H]2O[C@]3(CC[C@H](/C=C/[C@@H](C)[C@@H]4CC(C)=C[C@@]5(O[C@H](C[C@@](C)(O)C(=O)O)CC[C@H]5O)O4)O3)CC[C@H]2O[C@@H]1[C@@H](O)C[C@H](C)[C@H]1O[C@@]2(CCCCO2)CC[C@H]1C [OA, okadaic acid]
rate of cGMP accumulation from 5 to 15 min (desensitization) [3]: maintained a significant rate of cGMP accumulation from 5 to 15 min | reversal of the failure to maintain the initial rate of cGMP accumulation [3]: partially reversed the failure to maintain the initial rate of cGMP accumulation

CCCCCCCCCCCCC/C=C/[C@@H](O)[C@@H](N)COP(=O)(O)O [S1P, sphingosine-1-phosphate]
mechanism of GC-B desensitization [4]: does not require PKC activation but is reliant on the elevation of intracellular Ca^2+ levels | desensitization (reduction) of CNP-stimulated cGMP accumulation vs control ([1]; 10 μM S1P 30 min pre-treatment without IBMX, then 100 nM CNP 15 min with 1 mM IBMX, **P < 0.01, n = 3, Fig. 6a): 30 ± 2.7% | basal cGMP accumulation ([5]; 10 μM S1P, Fig. 6a): failed to significantly alter basal cGMP accumulation | desensitization of ANP-stimulated cGMP accumulation ([2]; 10 μM S1P 30 min pre-treatment, then 100 nM ANP 15 min with 1 mM IBMX, ns, P > 0.05, Fig. 6b): did not result in desensitization of ANP-stimulated cGMP accumulation

CC1(C)C(C=C(Cl)Cl)C1C(=O)OC(C#N)c1cccc(Oc2ccccc2)c1 (stereo not drawn) [cypermethrin]
rate of cGMP accumulation from 5 to 15 min (desensitization) [3]: failed to maintain a significant rate of cGMP accumulation | reversal of the failure to maintain the initial rate of cGMP accumulation [3]: failed to reverse the apparent homologous desensitization

C[C@H](CCC(=O)O)C[C@H](C)C[C@H](C)C(=O)/C=C(\O)[C@H](C)C[C@H](C)C/C=C/[C@@H](C)[C@@H](O)[C@@H](C)[C@@H](O)C[C@@H]1CC[C@@](C)([C@H]2CC[C@@](C)([C@@H](C)O)O2)O1 [ionomycin]
mechanism of GC-B desensitization [4]: having a similar effect

pituitary adenylate cyclase-activating polypeptide [PACAP]
effect on CNP-stimulated cGMP accumulation ([1]; 100 nM PACAP 30 min pre-treatment, then 100 nM CNP 15 min with 1 mM IBMX, ns, P > 0.05, Fig. 7a): failed to alter CNP-stimulated cGMP accumulation | basal cGMP accumulation [5, 6]: failed to alter basal cGMP accumulation

thyrotrophin-releasing hormone [TRH]
CNP-stimulated cGMP, % of control response to CNP (reduced to) ([1]; 100 nM TRH 30 min pre-treatment without GF109203X, then 100 nM CNP 15 min with 1 mM IBMX, P < 0.001, n = 3, Fig. 7b): 20.1 ± 5.4% | reduction in CNP-stimulated cGMP accumulation compared with control ([1]; 100 nM, 30 min pre-treatment without IBMX, then 100 nM CNP 15 min with 1 mM IBMX, ***P < 0.001, n = 3, Fig. 7a): 44.6 ± 2.5% | basal cGMP accumulation [5, 6]: failed to alter basal cGMP accumulation
